Laboratory results as given in PubChem BioAssay AID1996.
≈ marks a conversion by molar mass, not a printed value.

Details: buffer; pH 7.4; 200.0 µM
For `CC1CN(CCn2cnc3c(N)ncnc32)CC(C)O1` (centres undefined), the solubility kinetic was 36.9 µg/mL (≈ 134 µM). In the case of `CC(=O)c1ccc(NC(=O)CSc2nc3ccccc3c(=O)n2CCCN2CCOCC2)cc1`, the solubility kinetic is reported as > 72.1 µg/mL. `COc1cccc(-c2nc(-c3ccc(Br)o3)no2)c1` showed a solubility kinetic of 0.5 µg/mL (≈ 1.56 µM). In the case of `O=C(NNC(=O)C1CCN(S(=O)(=O)c2ccccc2)CC1)c1ccccc1O`, the solubility kinetic is reported as > 60.5 µg/mL. In the case of `COc1ccc(NC(=S)NC(=O)/C=C/c2ccc(F)cc2)cc1`, the solubility kinetic is reported as < 0.4 µg/mL. In the case of `CC1CCN(C(=O)CSc2n[nH]c(-c3cccs3)n2)CC1`, the solubility kinetic is reported as > 48.4 µg/mL. For `Cc1ccc(S(=O)(=O)NC2=NCN(CC(=O)[O-])CN2)cc1.[Na+]`, the solubility kinetic was > 50.1 µg/mL. In the case of `Cc1[nH]nc(SCC(=O)Nc2cccc(O)c2)c1[N+](=O)[O-]`, the solubility kinetic is reported as > 46.2 µg/mL. `CCC(CC)C(=O)c1c[nH]c(C(=O)NCc2ccccc2OC)c1` gave a solubility kinetic of 0.8 µg/mL (≈ 2.44 µM). Compound `Cc1cccc(OCCC(=O)Nc2ccc(C)c(S(=O)(=O)N3CCOCC3)c2)c1` has a solubility kinetic of 21.5 µg/mL (≈ 51.4 µM). In the case of `CC(c1ccccc1)C(CC(=O)O)C(=O)Nc1ccc(Cl)c(Cl)c1` (centres undefined), the solubility kinetic is reported as 46 µg/mL (≈ 126 µM). `O=C(NC1=NCCS1)c1ccc(Cl)c(Cl)c1` showed a solubility kinetic of 0.9 µg/mL (≈ 3.27 µM). Work on `CN(C(=O)CSc1ncnc2ccccc12)C1CCCCC1` yielded a solubility kinetic of 45.4 µg/mL (≈ 144 µM). With `COc1cccc(C(=O)NCC(=O)OC(C)C(=O)NC23CC4CC(CC(C4)C2)C3)c1` (centres undefined) the solubility kinetic was > 62.2 µg/mL. Compound `COc1ccc(S(=O)(=O)Nc2cccnc2)c(C)c1C` has a solubility kinetic of 19.8 µg/mL (≈ 67.7 µM). Work on `OCCC1CN(Cc2ccc3c(c2)CCO3)CCN1C1CCCC1` (centres undefined) yielded a solubility kinetic of 45.2 µg/mL (≈ 137 µM). In the case of `CCn1cc(S(=O)(=O)N2CCCC2)cn1`, the solubility kinetic is reported as > 34.4 µg/mL. Compound `O=C(CSc1ncccc1C(=O)O)NC1CCCCCCC1` has a solubility kinetic of 47.3 µg/mL (≈ 147 µM). Work on `CSc1cccc(N2C(=O)C3CCCN3C2=S)c1` (centres undefined) yielded a solubility kinetic of 36.2 µg/mL (≈ 130 µM). `O=C(NCC1CCCCC1)c1cccc([N+](=O)[O-])c1` showed a solubility kinetic of 20.2 µg/mL (≈ 77 µM). `O=C(Nc1ccc(Cl)cc1)N1CCN(c2ncccn2)CC1` showed a solubility kinetic of 44.4 µg/mL (≈ 140 µM). With `O=C1CN(C(=O)/C=C/c2ccccc2)CCN1` the solubility kinetic was > 34.5 µg/mL. With `O=C(COC(=O)Cc1ccccc1F)Nc1cccc(F)c1` the solubility kinetic was > 45.8 µg/mL. In the case of `O=S1(=O)CCN2C=C(Cl)C=C(Cl)C2=N1`, the solubility kinetic is reported as > 38 µg/mL. With `Cc1cccc(Nc2nc(C)cc(C)c2C#N)c1` the solubility kinetic was 0.8 µg/mL (≈ 3.37 µM). In the case of `CSc1ccccc1NC(=O)C1CCCN(S(C)(=O)=O)C1` (centres undefined), the solubility kinetic is reported as > 49.3 µg/mL. `O=C1C(Cl)=C(N2CCCCCC2)C(=O)N1c1ccc(Br)cc1` showed a solubility kinetic of 15.1 µg/mL (≈ 39.4 µM). Compound `CC(=O)Nc1cccc(C(=O)OCC(=O)c2ccccc2Cl)c1` has a solubility kinetic of 43 µg/mL (≈ 130 µM). In the case of `C(=C\c1ccncc1)/c1ccccc1`, the solubility kinetic is reported as 11.2 µg/mL (≈ 61.8 µM). For `CC(NCCC(Cc1ccccc1)c1ccco1)c1ccccc1` (centres undefined), the solubility kinetic was > 47.9 µg/mL. With `Cc1ncc([N+](=O)[O-])n1CC(=O)Nc1ccc(Br)cc1` the solubility kinetic was 9.9 µg/mL (≈ 29.2 µM). For `CN(CC(=O)NC1CCCC1)S(=O)(=O)c1cnc[nH]1`, the solubility kinetic was > 43 µg/mL. With `Cc1ccc(N=CNc2ccc(C)cc2C)c(C)c1` the solubility kinetic was 35.2 µg/mL (≈ 139 µM). Work on `COc1ccc(C/C(N)=N/OC(=O)CCc2ccccc2)cc1` yielded a solubility kinetic of 7.7 µg/mL (≈ 24.7 µM). `COc1ccc(-c2csc3nc[nH]c(=O)c23)cc1OC` showed a solubility kinetic of 39.4 µg/mL (≈ 137 µM). In the case of `CCc1ccc(CN(C)Cc2nc(COc3ccccc3)no2)nc1`, the solubility kinetic is reported as 36.7 µg/mL (≈ 108 µM). `O=C(Nc1ccccc1)Oc1cccc(Br)c1` showed a solubility kinetic of 35.9 µg/mL (≈ 123 µM). `O=[N+]([O-])c1ccc2c(c1)[nH]c(=S)n2-c1ccccc1` showed a solubility kinetic of 2 µg/mL (≈ 7.37 µM). For `CCC(=O)NC1OC(CO)C(O)C(O)C1O` (centres undefined), the solubility kinetic was > 35.3 µg/mL. For `N#Cc1c(-c2ccccc2)cc(-c2ccccc2)nc1SCCC(=O)O`, the solubility kinetic was > 54.1 µg/mL. With `CCOc1ccc(Nc2nc(NCc3ccco3)nc(N)c2[N+](=O)[O-])cc1` the solubility kinetic was < 0.1 µg/mL. `CCCCCCCCn1c(=O)c(C(=O)OC)c(N)c2ccccc21` showed a solubility kinetic of 0.9 µg/mL (≈ 2.72 µM). `CCOc1ncccc1C(=O)Nc1ccccc1F` gave a solubility kinetic of 2.5 µg/mL (≈ 9.61 µM). For `CC(C)c1ccc(OCC(=O)N2CCc3ccccc3C2)cc1`, the solubility kinetic was 9 µg/mL (≈ 29.1 µM). In the case of `O=C(COC(=O)c1ccc[nH]c1=O)NCCC1=CCCCC1`, the solubility kinetic is reported as 41.1 µg/mL (≈ 135 µM). In the case of `O=C(CSc1nc2ccccc2c(=O)n1CCCN1CCOCC1)Nc1ccccc1OC(F)F`, the solubility kinetic is reported as > 75.7 µg/mL. For `S=c1nc(C2CCCCC2)[nH]c2ccccc12`, the solubility kinetic was 0.5 µg/mL (≈ 2.05 µM). With `Cc1ccc(C(=O)NCC(c2ccc(F)cc2)N2CCOCC2)cc1` (centres undefined) the solubility kinetic was 44.4 µg/mL (≈ 130 µM). Compound `CCOc1ccc(S(=O)(=O)N2CCN(c3ncccn3)CC2)cc1` has a solubility kinetic of 2.7 µg/mL (≈ 7.75 µM). For `Cc1c(C)n(CCc2c[nH]c3ccccc23)ccc1=O`, the solubility kinetic was 38.5 µg/mL (≈ 145 µM). For `CC1CC(NC2=NCCS2)CC(C)(C)C1` (centres undefined), the solubility kinetic was 24.6 µg/mL (≈ 109 µM). For `COc1ccc2[nH]c(-c3ccccc3)cc2c1`, the solubility kinetic was < 0.5 µg/mL. For `COCCNS(=O)(=O)c1ccc(C)c(C)c1C`, the solubility kinetic was 34.9 µg/mL (≈ 136 µM). For `COC(=O)CSc1ncc(S(=O)(=O)c2ccccc2)c(=O)[nH]1`, the solubility kinetic was > 51.1 µg/mL. In the case of `COc1ccc(Cl)cc1NC(=O)COC(C)=O`, the solubility kinetic is reported as > 38.7 µg/mL. `O=C1CN(C(=O)COC(=O)c2ccccc2O)c2ccccc2N1` showed a solubility kinetic of 3.5 µg/mL (≈ 10.7 µM). Compound `O=c1nc(/C=C/c2ccc(Cl)cc2Cl)cc(C(F)(F)F)[nH]1` has a solubility kinetic of 7.3 µg/mL (≈ 21.8 µM). `O=C(O)C(Cc1ccc(Cl)cc1)Sc1nc2ccccc2[nH]1` (centres undefined) gave a solubility kinetic of 42.3 µg/mL (≈ 127 µM). `COc1ccc(CNC(=O)c2c[nH]c3ccccc3c2=O)cc1` showed a solubility kinetic of 4.1 µg/mL (≈ 13.3 µM).
